Measurements taken from patent US9289446B2, “Myocardial perfusion imaging methods and compositions” (GILEAD SCIENCES, INC., priority 2002, dated 2016).

What was measured:
[1] = tested on: blood flow in coronary, mesenteric, hind limb and renal vascular beds; test: Example 8: vasodilator effects in different vascular beds (CBF, MBF, LBF, RBF) in awake dogs; assay type: in vivo; settings: CVT-3146 2.5 μg/kg, ADO 250 μg/kg
Experimental: Example 8 employed a pharmaceutical composition consisting of an aqueous composition of 100 micrograms/mL CVT-3146 in 15% (w:v) propylene glycol and 100 mM phosphate buffer at pH 7 with 0.1% EDTA. The formulation was stored in type I glass vials at 5 mL per vial.
In this study the vasodilator effects of CVT-3146 were compared to those of ADO in different vascular beds in awake dogs. Dogs were chronically instrumented for measurements of the blood flow in coronary (CBF), mesenteric (MBF), hind limb (LBF), and renal (RBF) vascular beds, and hemodynamics.

[2] = tested on: heart rate (HR) and blood pressure (BP); test: Example 5: heart rate, blood pressure and plasma catecholamines after i.v. bolus in awake rats (sympathoexcitation); assay type: in vivo; settings: in the presence of hexamethonium 10 mg/kg, n=5
Experimental: The present study was carried out to determine whether CVT-3146, a selective A2A adenosine receptor agonist, causes sympathoexcitation.
CVT (0.31 μg/kg-50 μg/kg) was given as a rapid i.v. bolus to awake rats and heart rate (HR) and blood pressure (BP) were monitored. CVT-3146 caused an increase in BP and systolic pressure (SP) at lower doses while at higher doses there was a decrease in BP and SP. […] The increase in HR was evident at the lowest dose of CVT at which there was no appreciable decrease in BP. ZM241385 (30 μg/kg, N=5), an A2A receptor antagonist, attenuated the decrease in BP (CVT-3146: 14±3%, ZM: 1±1%) and the increase in HR (CVT: 27±3%, ZM: 18±3%) caused by CVT-3146. Pretreatment with metoprolol (MET, 1 mg/kg, n=5), a beta-blocker, attenuated the increase in HR (CVT: 27±3%, MET: 15±2%), but had no effect on hypotension caused by CVT-3146. In the presence of hexamethonium (HEX, 10 mg/kg, n=5), a ganglionic blocker, the tachycardia was prevented (CVT: 27±3%, HEX: −1±2%), but BP was further reduced (CVT: −11±2%, HEX: −49±5%).

SMILES	duration for CBF above 2-fold of the baseline [1] [s]	change in BP caused by CVT-3146 [2] [%]	increase in HR (tachycardia) caused by CVT-3146 [2] [%]
Nc1ncnc2c1ncn2[C@@H]1O[C@H](CO)[C@@H](O)[C@H]1O [adenosine, reference compound]	16 ± 3		
C[N+](C)(C)CCCCCC[N+](C)(C)C [hexamethonium, reference compound]		−49±5	−1±2
